Molecular target: T1, human OX2 receptor (Homo sapiens, UniProt O43614)
T1 sequence (O43614 1-444): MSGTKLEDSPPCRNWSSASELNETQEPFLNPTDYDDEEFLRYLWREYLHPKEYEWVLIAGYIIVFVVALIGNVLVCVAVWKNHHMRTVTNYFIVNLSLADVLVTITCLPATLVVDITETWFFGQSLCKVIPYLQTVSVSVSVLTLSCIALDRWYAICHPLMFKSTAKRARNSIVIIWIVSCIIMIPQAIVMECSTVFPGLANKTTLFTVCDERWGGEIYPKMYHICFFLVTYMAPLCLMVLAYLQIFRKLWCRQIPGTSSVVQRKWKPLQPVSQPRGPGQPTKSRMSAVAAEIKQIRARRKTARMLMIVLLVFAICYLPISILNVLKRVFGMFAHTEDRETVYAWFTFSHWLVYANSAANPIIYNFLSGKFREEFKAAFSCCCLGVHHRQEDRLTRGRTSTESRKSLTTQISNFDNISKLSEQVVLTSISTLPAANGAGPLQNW
Assay: [3H]-radioligand binding assay, OX2
Design: made in house; host or cells: SF21 insect cells (baculovirus; P0 virus made in SF9)
Conditions: [3H]-radioligand binding, human OX2 membranes; read-out: pKi average OX2 (converted)
From the text: Cloning, Baculovirus generation, large-scale infection of SF21 cells and membrane preparation. Human OX1 or OX2 receptor were cloned into Invitrogen's (ThermoFisher Scientific, UK) Bac-to-Bac Baculovirus Expression System. P0 baculovirus was generated by transfecting SF9 cells with bacmid DNA using Cellfectin® II transfection reagent (ThermoFisher Scientific, UK, Catalog number 10362-100). Following P0 generation P1 virus was then generated ready for large scale infection and membrane preparation. SF21 cells were grown in expression medium ESF921 (Expression Systems, USA, catalog number 96-001-01) supplemented with 10% heat-inactivated FBS and 1% Pen/Strep and were infected at a cell density of 2.5×10^6 cells/mL and a multiplicity of infection of 1.0 for both human OX1R and OX2R. Incubation was carried out at over 48 h in a shaking incubator set at 27° C. The cell culture was then centrifuged at 2,500 rcf for 10 min at 4° C. The pellets were resuspended in cold PBS supplemented with Roche's Complete EDTA-free protease inhibitor cocktail tablets (Roche Applied Sciences, catalog number 05056489001), 1 mM PMSF and 1 mM EDTA. The resuspended cell paste was then centrifuged at 3,273 rcf for 12 min at 4° C. The supernatant was discarded and the pellet frozen at −80° C. The cell pellet from a 4 L culture was resuspended in buffer containing 50 mM HEPES pH 7.5, 150 mM NaCl, 8 Roche EDTA-Free protease inhibitor cocktail tablets and 1 mM PMSF. The suspension was left stirring at rt for 1 h and then homogenised for 90 s at 9,500 rpm using a VDI 25 (VWR, USA) homogeniser. The cells were then lysed using a Microfluidiser processor M-110L Pneumatic (Microfluidics, USA) at 60 PSI and membranes collected by ultracentrifugation at 204.7 k×g for 1 h. The supernatant was discarded and the pellet was resuspended and homogenised in 90 s at 9,500 rpm in 50 mL (25 mL for each 2 L culture) of buffer containing 50 mM Hepes pH 7.5, 150 mM NaCl, 3 Roche EDTA-free protease inhibitor cocktail tablets and 1 mM PMSF. The resulting membranes were then stored at −80° C.
[^3H]-radioligand binding assay. After thawing, membrane homogenates were resuspended in the binding buffer (8.5 mM HEPES, pH 7.4, 1.3 mM CaCl2, 1.2 mM MgSO4, 118 mM NaCl, 4.7 mM KCl, 4 mM NaHCO3, 1.2 mM KH2PO4, 11 mM glucose) to a final assay concentration of 6.4 μg (OX1) or 1.4 μg (OX2) protein per well. Saturation isotherms were determined by the addition of various concentrations (0-30 nM) of [^3H]-4-(2,6-difluoro-4-methoxybenzyl)-2-(5,6-dimethoxypyridin-3-yl)-2H-1,2,4-benzothiadiazin-3(4H)-one 1,1-dioxide (Christopher et al, MedChemComm., 2015, 6, 947-955) in a total reaction volume of 250 μL for 90 min at rt. At the end of the incubation, membranes were filtered onto a 96-well GF/B filter pre-incubated with 0.5% polyethylenimine, with a Tomtec cell harvester and washed 5 times with 0.5 mL distilled water. Non-specific binding (NSB) was measured in the presence of 3.33 μM [4-(5-chloro-1,3-benzoxazol-2-yl)-7-methyl-1,4-diazepan-1-yl][5-methyl-2-(2H-1,2,3-triazol-2-yl)phenyl]methanone (Wertz et al, Angew. Chem. Int. Ed., 2011, 50, 11511-11515). Radioactivity on the filter was counted (1 min) on a Microbeta radiometric plate counter (Perkin Elmer) after addition of 50 μL of scintillation fluid (LabLogic: Part #SG-BXX-14). […] IC50 values were derived from the inhibition curve and the equilibrium dissociation constant (Ki) values were calculated using the Cheng-Prusoff equation.

Compound | Ki
COc1ncc(N2CCc3c(F)cccc3N(Cc3ccc(Br)cc3F)C2=O)cc1C(C)(F)F [Example 10, 1-(4-bromo-2-fluorobenzyl)-3-[5-(1,1-difluoroethyl)-6-methoxypyridin-3-yl]-6-fluoro-1,3,4,5-tetrahydro-2H-1,3-benzodiazepin-2-one] | > 251 nM
COc1cc(F)c(CN2C(=O)N(c3cnc(OC)c(S(C)(=O)=O)c3)CCc3c(F)cccc32)c(F)c1F [Example 15, 6-fluoro-3-[6-methoxy-5-(methylsulfonyl)pyridin-3-yl]-1-(2,3,6-trifluoro-4-methoxybenzyl)-1,3,4,5-tetrahydro-2H-1,3-benzodiazepin-2-one] | > 251 nM
COc1cc(F)c(CN2C(=O)N(c3cc(S(C)(=O)=O)c(OC)nc3OC)CCc3c(F)cccc32)c(F)c1 [Example 25, 1-(2,6-difluoro-4-methoxybenzyl)-3-[2,6-dimethoxy-5-(methylsulfonyl)pyridin-3-yl]-6-fluoro-1,3,4,5-tetrahydro-2H-1,3-benzodiazepin-2-one] | > 126 nM
CSc1cc(N2CCc3c(F)cccc3N(Cc3c(F)cc(Br)cc3F)C2=O)ccc1C [Example 26, 1-(4-bromo-2,6-difluorobenzyl)-6-fluoro-3-[4-methyl-3-(methylsulfanyl)phenyl]-1,3,4,5-tetrahydro-2H-1,3-benzodiazepin-2-one] | 100 nM
Cc1ccc(N2CCc3c(F)cccc3N(Cc3c(F)cc(Br)cc3F)C2=O)cc1S(C)(=O)=O [Example 27, 1-(4-bromo-2,6-difluorobenzyl)-6-fluoro-3-[4-methyl-3-(methylsulfonyl)phenyl]-1,3,4,5-tetrahydro-2H-1,3-benzodiazepin-2-one] | > 316 nM
CCCc1cc(F)c(CN2C(=O)N(c3ccc(C)c(S(C)(=O)=O)c3)CCc3c(F)cccc32)c(F)c1 [Example 28, 1-(2,6-difluoro-4-propylbenzyl)-6-fluoro-3-[4-methyl-3-(methylsulfonyl)phenyl]-1,3,4,5-tetrahydro-2H-1,3-benzodiazepin-2-one] | > 316 nM
Cc1cc(C)c(S(C)(=O)=O)cc1N1CCc2ccccc2N(Cc2c(F)cc(Br)cc2F)C1=O [Example 29, 1-(4-bromo-2,6-difluorobenzyl)-3-[2,4-dimethyl-5-(methylsulfonyl)phenyl]-1,3,4,5-tetrahydro-2H-1,3-benzodiazepin-2-one] | 100 nM
Cc1cc(C)c(S(C)(=O)=O)cc1N1CCc2c(F)cccc2N(Cc2c(F)cc(Br)cc2F)C1=O [Example 31, 1-(4-bromo-2,6-difluorobenzyl)-3-[2,4-dimethyl-5-(methylsulfonyl)phenyl]-6-fluoro-1,3,4,5-tetrahydro-2H-1,3-benzodiazepin-2-one] | 200 nM

Next, values leading:

Ki | Compound
100 nM | [2H]C([2H])([2H])Oc1cc(F)c(CN2C(=O)N(c3cnc(OC)c(C(C)(F)F)c3)CCc3c(F)cccc32)c(F)c1 [Example 6, 3-[5-(1,1-difluoroethyl)-6-methoxypyridin-3-yl]-1-{2,6-difluoro-4-[(^2H3)methyloxy]benzyl}-6-fluoro-1,3,4,5-tetrahydro-2H-1,3-benzodiazepin-2-one]
> 251 nM | COc1ncc(N2CCc3c(F)cccc3N(Cc3c(F)cc(Br)cc3F)C2=O)cc1S(C)(=O)=O [Example 14, 1-(4-bromo-2,6-difluorobenzyl)-6-fluoro-3-[6-methoxy-5-(methylsulfonyl)pyridin-3-yl]-1,3,4,5-tetrahydro-2H-1,3-benzodiazepin-2-one]
> 126 nM | COc1nc(OC)c(C(C)(F)F)cc1N1CCc2c(F)cccc2N(Cc2c(F)cc(Br)cc2F)C1=O [Example 23, 1-(4-bromo-2,6-difluorobenzyl)-3-[5-(1,1-difluoroethyl)-2,6-dimethoxypyridin-3-yl]-6-fluoro-1,3,4,5-tetrahydro-2H-1,3-benzodiazepin-2-one]
> 158 nM | COCc1cc(F)c(CN2C(=O)N(c3cc(C(C)(F)F)c(OC)nc3OC)CCc3c(F)cccc32)c(F)c1 [Example 24, 3-[5-(1,1-difluoroethyl)-2,6-dimethoxypyridin-3-yl]-1-[2,6-difluoro-4-(methoxymethyl)benzyl]-6-fluoro-1,3,4,5-tetrahydro-2H-1,3-benzodiazepin-2-one]
50.1 nM | Cc1ncc(N2CCc3c(F)cccc3N(Cc3c(F)cc(Br)cc3F)C2=O)cc1C(C)(F)F [Example 32, 1-(4-bromo-2,6-difluorobenzyl)-3-[5-(1,1-difluoroethyl)-6-methylpyridin-3-yl]-6-fluoro-1,3,4,5-tetrahydro-2H-1,3-benzodiazepin-2-one]
> 251 nM | COCc1cc(F)c(CN2C(=O)N(c3cnc(C)c(C(C)(F)F)c3)CCc3c(F)cccc32)c(F)c1 [Example 33, 3-[5-(1,1-difluoroethyl)-6-methylpyridin-3-yl]-1-[2,6-difluoro-4-(methoxymethyl)benzyl]-6-fluoro-1,3,4,5-tetrahydro-2H-1,3-benzodiazepin-2-one]
> 251 nM | CCCc1cc(F)c(CN2C(=O)N(c3cnc(C)c(C(C)(F)F)c3)CCc3c(F)cccc32)c(F)c1 [Example 34, 3-[5-(1,1-difluoroethyl)-6-methylpyridin-3-yl]-1-(2,6-difluoro-4-propylbenzyl)-6-fluoro-1,3,4,5-tetrahydro-2H-1,3-benzodiazepin-2-one]

Source: US20210179578A1, “OX1 ANTAGONISTS” (Heptares Therapeutics Limited, priority 2017, published 2021)
